Like-named read-outs stand apart in the source and are kept apart here. Each block holds one compound with its values, some of them ahead of it.
What was measured:
[1] = Release kinetics in vitro: hydrolysis in buffer at pH 7.4 and 37° C.; type: physicochemical; conditions: sodium phosphate buffer; half time of release, 60 mM sodium phosphate, 3 mM EDTA, 0.01% Tween20, pH 7.4, 37° C.; read-out: t1/2 buffer A (pH 7.4) (converted)
Protocol: In vitro release sample was vortexed and centrifuged. An aliquot was taken from the supernatant, diluted with eluent (20 mM phosphate buffer pH 7.4, 150 mM NaCl) and assayed for pramipexole content by SEC as described above.
Release of drug molecule was effected by hydrolysis in buffer at pH 7.4 and 37° C.
9a, 9b, 9c, 9d, 9e, 11b, 20, 21, 22b, 23, 24b, 33, and 35 respectively, were dissolved in buffer (60 mM sodium phosphate, 3 mM EDTA, 0.01% Tween20, pH 7.4), solution was filtered through a 0.2 μm filter and incubated at 37° C. Samples were taken at time intervals and analyzed by RP-HPLC at 263 nm and 280 nm and ESI-MS. UV-signals correlating to linker conjugate molecules were integrated and plotted against incubation time. Curve-fitting software was applied to estimate the corresponding half time of release
16a, 16b, 26, 30, and 31 respectively, were suspended in buffer (60 mM sodium phosphate, 3 mM EDTA, 0.01% Tween20, pH 7.4) and incubated at 37° C. At time intervals samples were vortexed and centrifuged. Aliquots (10-50 μL) were taken from the supernatant solution, and analyzed by measurement of the absorption of released drug at 263 nm. Calculated amounts of released drug were plotted against incubation time. Alternatively, amount of released pramipexole was determined by size exclusion chromatography as described in “Materials and Methods”.
Curve-fitting software was applied to estimate the corresponding half time of release.

[2] = cited from earlier work

half-life [1]: 88.8 h
SMILES: CCCN[C@H]1CCc2nc(NC(=O)CCC(=O)NCCCCCCSC3CC(=O)N(CCC(=O)NCCOCCOCCOCCOCCOCCOCCC(=O)NCC(N)=O)C3=O)sc2C1 (some centres unmarked) [Compound 9b]

half-life [1]: 31.2 h
SMILES: CCCN[C@H]1CCc2nc(NC(=O)COCC(=O)NCCCCCCSC3CC(=O)N(CCC(=O)NCCOCCOCCOCCOCCOCCOCCC(=O)NCC(N)=O)C3=O)sc2C1 (some centres unmarked) [Compound 9c]

half-life [1]: 26.4 h
SMILES: CCCN[C@H]1CCc2nc(NC(=O)CNCC(=O)NCCCCCCSC3CC(=O)N(CCC(=O)NCCOCCOCCOCCOCCOCCOCCC(=O)NCC(N)=O)C3=O)sc2C1 (some centres unmarked) [Compound 9d]

Second part, the compound before the results:

SMILES: CCCN[C@H]1CCc2nc(NC(=O)CCC(=O)NCCSC3CC(=O)N(CCC(=O)NCCOCCOCCOCCOCCOCCOCCC(=O)NCC(N)=O)C3=O)sc2C1 (some centres unmarked) [Compound 9a]
half-life [1]: 28.8 h

SMILES: CCCN[C@H]1CCc2nc(NC(=O)CNC(=O)NCCCCCCSC3CC(=O)N(CCC(=O)NCCOCCOCCOCCOCCOCCOCCC(=O)NCC(N)=O)C3=O)sc2C1 (some centres unmarked) [Compound 9e]
half-life [1]: 103 h

SMILES: CCCN[C@H]1CCc2nc(N)sc2C1 [Pramipexole]
elimination half life ([2]; healthy subjects): 8 h
excretion ([2]; in vivo): mainly renal
metabolism ([2]; in vivo): negligible metabolism
protein bound ([2]; in vivo): Fifteen
volume of distribution ([2]; in vivo): 7 L/kg
absorption ([2]; oral administration): rapidly and completely absorbed
time to maximum plasma concentration ([2]; oral, empty stomach): 1 to 2 h
time to maximum plasma concentration ([2]; oral, with food): 3 to 4 h
Oral bioavailability ([2]; oral): over 90%

— US20120191039A1, “CARRIER LINKED PRAMIPEXOLE PRODRUGS” (ASCENDIS PHARMA A/S, priority 2009, published 2012)
